How the values were obtained:
[1] = system: methamphetamine-induced hyperlocomotion; experiment: Methamphetamine-induced hyperlocomotion model (animal model of Schizophrenia); assay type: in vivo, male ddY mouse; conditions: oral administration to male ddY mice
Description: Methamphetamine is a psychostimulant, and is known to cause symptoms that are similar to Schizophrenia by increasing the transmission in the dopaminergic neurons. The abnormal behavior produced when methamphetamine is administered to an animal is generally used as a screening method for a therapeutic drug for Schizophrenia (Oka et al., 1993, J. Pharmacol. Exp. Ther., 264:158-165, herein incorporated by reference). That is, a male ddY mouse was placed in an activity monitoring apparatus, and after 30 min, methamphetamine was administered. Immediately after administering methamphetamine, the mouse was returned to the monitoring apparatus, and the activity for 1 hour from immediately after the return was measured. For the measurement of the activity, a Supermex sensor manufactured by Muromachi Kikai Co., Ltd. was used. A solvent, or a diluted solution obtained by diluting each of the test compounds with a solvent at multiple concentrations was orally administered to mice in a group. As the solvent, a 0.5% aqueous methyl cellulose solution was used. The statistical analysis was carried out between the group administered with the solvent and the group administered with the drug, using a Dunnett's test.

[2] = pKa value of the compound; assay type: physicochemical

Compound | methamphetamine-induced hyperlocomotion inhibitory action [1] | pKa [2]
Fc1ccc(Nc2nc(NCc3ncccn3)nc(Nc3ccccc3)n2)cc1 [compound A, N-(4-fluorophenyl)-N′-phenyl-N″-(pyrimidin-2-ylmethyl)-1,3,5-triazine-2,4,6-triamine] | inhibited the methamphetamine-induced hyperlocomotion | 3.9
Fc1ccc(Nc2nc(NCc3ncccn3)nc(Nc3ccc(F)cc3)n2)cc1 [compound B, N,N′-bis(4-fluorophenyl)-N″-(pyrimidin-2-ylmethyl)-1,3,5-triazine-2,4,6-triamine] | inhibited the methamphetamine-induced hyperlocomotion | –

From patent US8399663B2, “Salt of 1,3,5-triazine-2,4,6-triamine derivative” (Astellas Pharma Inc., priority 2009, dated 2013)
